According to US7250399B2, “Compounds having growth hormone releasing activity” (The Administrators of the Tulane Educational Fund, priority 1998, dated 2007):
Values joined by “and” are separate entries in the source; they are usually repeats but may differ in a detail not shown here. Equal entries are not always repeated. Square brackets hold non-standard residues; d marks the D form. Ends that are not written are not given here. d2Nal = N[C@H](Cc1ccc2ccccc2c1)C(=O)O

Tests used:
Growth Hormone release [1] = assay: In Vivo GH Release in Rats (i.v., serum GH by RIA); parameters: species or system Sprague-Dawley rats; conditions: for In Vivo Release of Growth Hormone in Rat, GH: i.v., serum 10 min after injection
Description: Immature female Sprague-Dawley rats were obtained from the Charles River Laboratories (Wilmington, Mass.). After arrival they were housed at 25° C. with a 14:10 hour light:dark cycle. Water and Purina rat chow were available ad libitum. Pups were kept with their mothers until 21 days of age.
Twenty-six day old rats, six rats per treatment group, were anesthetized interperitoneally with 50 mg/kg of pentobarbital 20 minutes prior to i.v. treatment with peptide. Normal saline with 0.1% gelatin was the vehicle for intravenous (i.v.) injections of the peptides. The anesthetized rats, weighing 55-65 grams, were injected i.v. with the quantity of grown hormone releasing compounds indicated in Table 3. Injection was made as a 0.1 mL solution into the jugular vein.
All animals were sacrificed by guillotine 10 minutes after final test injection (see Table 3). Trunk blood for the determination of blood GH levels was collected following decapitation. After allowing the blood to clot, it was centrifuged and the serum was separated from the clot. Serum was kept frozen until the day of sampling for radioimmunoassay (RIA) determination of growth hormone levels according to the following procedure, as developed by the National Institute of Arthritis, Diabetes and Digestive and Kidney Diseases (NIADDK).
Reagents are generally added to the RIA analysis tubes at a single sitting, at refrigerator temperature (about 4° C.) in the following sequence: • (a) buffer, • (b) “cold” (i.e., non-radioactive) standard or unknown serum sample to be analyzed, • (c) radio-iodinated growth hormone antigen, and • (d) growth hormone antiserum.
Reagent addition is generally carried out so that there is achieved a final RIA tube dilution of about 1:30,000 (antiserum to total liquid volume; vol:vol).
The mixed reagents are then typically incubated at room temperature (about 25° C.) for about 24 hours prior to addition of a second antibody (e.g., goat or rabbit anti-monkey gamma globulin serum) which binds to and causes precipitation of the complexed growth hormone antiserum. Precipitated contents of the RIA tubes are then analyzed for the number of counts in a specified period of time in a gamma scintillation counter. A standard curve is prepared by plotting number of radioactive counts versus growth hormone (GH) level. GH levels of unknown are then determined by reference to the standard curve.
Serum GH was measured by RIA with reagents provided by the National Hormone and Pituitary Program.
Serum levels in Tables 3 and 4 are recorded in ng/mL in terms of the rat GH standard of 0.61 International Units/mg (IU/mg). Data is recorded as the mean ±standard error of the mean (SEM). Statistical analysis was performed with Student's t-test. In Table 3, the results shown are the average of studies with six rats.

[2] = tested on: short-statured children with various degrees of GH deficiency; conditions: cited from earlier work
Growth Hormone release [3] = assay: In Vivo Release of Growth Hormone in Adult Beagle Dogs; parameters: unit not given here
Description: (§1) In vitro and in vivo activity of certain compounds were determined in rats and adult beagle dogs (in vivo activity only).

Growth Hormone release [4] = assay: In Vitro Release of Growth Hormone in Rat; type: cell-based
Description: as §1

In the case of [dA][d2Nal]AW[dF]K-NH2 [GHRP-2], the “GH ng/ml, GHRP-2 (.03)” value (Growth Hormone release [1]; rat, GHRP-2 reference standard, dose (.03) (dose unit not given)) is given as 811 ng/mL, the “effect on height velocity compared with chronic recombinant human growth hormone (rhGH) administration” value ([2]; in vivo) is given as “less effective” and the “rate of height velocity” value ([2]; short-statured children, 2-3 times per day over a 2 year period) is given as “accelerated”.

With `CCN(CC)C(=O)C1CCCNC1` (centres unmarked) [N,N-diethylnipecotamide] the “In Vivo Release of Growth Hormone in Adult Beagle Dogs” value (Growth Hormone release [3]; oral dose 4 mg/kg, time 0 hr, 4 mg/kg) was 1.7 and 0.9, the “In Vivo Release of Growth Hormone in Adult Beagle Dogs” value (Growth Hormone release [3]; oral dose 4 mg/kg, time 0.5 hr, 4 mg/kg) was 57 and 43 and the “In Vivo Release of Growth Hormone in Adult Beagle Dogs” value (Growth Hormone release [3]; oral dose 4 mg/kg, time 1 hr, 4 mg/kg) was 13 and 8. For the same compound, the “In Vivo Release of Growth Hormone in Adult Beagle Dogs” value (Growth Hormone release [3]; oral dose 4 mg/kg, time 6 hr, 4 mg/kg) was 1.9 and 2.1, the “In Vivo Release of Growth Hormone in Adult Beagle Dogs” value (Growth Hormone release [3]; oral dose 4 mg/kg, time 8 hr, 4 mg/kg) was 1.7 and 0.9 and the “In Vivo Release of Growth Hormone in Adult Beagle Dogs” value (Growth Hormone release [3]; oral dose 4F [sic] (mg/kg; F not explained), time 0 hr) was 2.7. For the same compound, the “In Vivo Release of Growth Hormone in Adult Beagle Dogs” value (Growth Hormone release [3]; oral dose 4F [sic] (mg/kg; F not explained), time 2 hr) was 3.7, the “In Vivo Release of Growth Hormone in Adult Beagle Dogs” value (Growth Hormone release [3]; oral dose 4F [sic] (mg/kg; F not explained), time 4 hr) was 0.9 and the “In Vivo Release of Growth Hormone in Adult Beagle Dogs” value (Growth Hormone release [3]; oral dose 4F [sic] (mg/kg; F not explained), time 5 hr) was 10. For the same compound, the “In Vivo Release of Growth Hormone in Adult Beagle Dogs” value (Growth Hormone release [3]; oral dose 4F [sic] (mg/kg; F not explained), time 8 hr) was 3.5, the “In Vivo Release of Growth Hormone in Rat, GH” value (“In Vivo Release … GH” for short) (Growth Hormone release [1]; compound at 1 (dose unit not given)) was 928 ng/mL and the “In Vivo Release … GH” value (Growth Hormone release [1]; compound at 3 (dose unit not given)) was 2070 ng/mL. For the same compound, the “In Vivo Release … GH” value (Growth Hormone release [1]; compound at 10 (dose unit not given)) was 2896 ng/mL, the “In Vivo Release … GH” value (Growth Hormone release [1]; compound at 30 (dose unit not given)) was 2186 ng/mL and the “In Vivo Release … GH” value (Growth Hormone release [1]; compound at .3 (dose unit not given)) was 221 ng/mL. The “In Vitro Release of Growth Hormone in Rat, GH” value (shortened to “In Vitro Release”) (Growth Hormone release [4]; compound at .0001 (dose unit not given)) was 418 ng/mL, the “In Vitro Release” value (Growth Hormone release [4]; compound at .0003 (dose unit not given)) was 395 ng/mL and the “In Vitro Release” value (Growth Hormone release [4]; compound at .001 (dose unit not given)) was 489 ng/mL. For the same compound, the “In Vitro Release” value (Growth Hormone release [4]; compound at .003 (dose unit not given)) was 536 ng/mL and the “In Vitro Release” value (Growth Hormone release [4]; compound at .01 (dose unit not given)) was 642 ng/mL.
